For this test, the target named is T1, SIRT1 (Homo sapiens, UniProt Q96EB6).
T1 sequence (Q96EB6 1-747): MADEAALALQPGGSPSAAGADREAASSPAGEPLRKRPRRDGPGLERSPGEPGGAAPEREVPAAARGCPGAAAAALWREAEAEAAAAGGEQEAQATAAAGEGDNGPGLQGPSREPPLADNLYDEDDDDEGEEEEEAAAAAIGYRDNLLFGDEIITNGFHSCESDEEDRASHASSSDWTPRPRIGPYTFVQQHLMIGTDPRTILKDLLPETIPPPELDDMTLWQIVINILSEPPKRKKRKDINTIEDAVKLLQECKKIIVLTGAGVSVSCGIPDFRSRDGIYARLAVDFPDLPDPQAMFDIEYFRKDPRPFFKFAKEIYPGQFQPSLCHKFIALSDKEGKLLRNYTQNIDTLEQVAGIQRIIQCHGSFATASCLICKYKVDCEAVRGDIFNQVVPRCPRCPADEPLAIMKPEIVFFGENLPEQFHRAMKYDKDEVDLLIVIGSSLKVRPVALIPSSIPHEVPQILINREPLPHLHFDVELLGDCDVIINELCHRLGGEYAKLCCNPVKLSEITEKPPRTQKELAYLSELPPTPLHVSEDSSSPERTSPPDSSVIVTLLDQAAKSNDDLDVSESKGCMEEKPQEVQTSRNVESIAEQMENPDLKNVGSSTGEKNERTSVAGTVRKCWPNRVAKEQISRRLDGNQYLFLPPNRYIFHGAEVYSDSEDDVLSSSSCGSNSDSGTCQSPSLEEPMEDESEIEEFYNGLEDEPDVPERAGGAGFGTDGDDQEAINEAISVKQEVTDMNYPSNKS
As to the kind of experiment: Trp mass spectrometry assay (SIRT1 activation). The test is classed as biochemical. The conditions noted are these: Trp peptide substrate; for Tryp AVG EC1.5 (μM): concentration of test compound that results in 150% activation of SIRT1; for Emax: percent maximum fold activation of SIRT1, read-out: Tryp % Fold Act. Summed up: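 Activation is expressed as EC1.5, the concentration raising activity 50% above DMSO control, and as maximum percent of control. Mass-spec readout was OAADPR or deacetylated Trp peptide after a formic-acid-quenched 25-min, 25 °C reaction: 10 nM bacterially expressed His-SIRT1, 0.5 μM acetyl-p53-derived peptide, 120 μM NAD+, pH 7.5 HEPES with […].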

Consider `O=C(Nc1cnccn1)N1c2nc(N3CCCC(C(F)(F)F)C3)ccc2N2CCC[C@@H]1C2` (stereo partly drawn) [Example 307], for which the “Tryp AVG EC1.5 (μM)” value was “B (EC1.5 1-25 μM)” and the Emax is no less than 150%.

For `O=C(Nc1ccncn1)N1c2nc(N3CCCC(C(F)(F)F)C3)ccc2N2CCC[C@@H]1C2` (stereo partly drawn) [Example 308], the “Tryp AVG EC1.5 (μM)” value is “C (EC1.5>25 μM)” and the Emax was no less than 150%.

With `COc1cncc(NC(=O)N2c3nc(N4CCCC(C(F)(F)F)C4)ccc3N3CCC[C@@H]2C3)c1` (stereo partly drawn) [Example 309], the “Tryp AVG EC1.5 (μM)” value is recorded as “B (EC1.5 1-25 μM)” and the Emax is no less than 150%.

As for `O=C(Nc1nccs1)N1c2nc(N3CCCC(C(F)(F)F)C3)ccc2N2CCC[C@@H]1C2` (stereo partly drawn) [Example 310], the “Tryp AVG EC1.5 (μM)” value is reported as “B (EC1.5 1-25 μM)” and the Emax is no less than 150%.

Consider `Cc1cnc(NC(=O)N2c3nc(N4CCCC(C(F)(F)F)C4)ccc3N3CCC[C@@H]2C3)s1` (stereo partly drawn) [Example 311], for which the “Tryp AVG EC1.5 (μM)” value is “C (EC1.5>25 μM)” and the Emax was less than 150%.

In the case of `Cc1csc(NC(=O)N2c3nc(N4CCCC(C(F)(F)F)C4)ccc3N3CCC[C@@H]2C3)n1` (stereo partly drawn) [Example 312], the “Tryp AVG EC1.5 (μM)” value is recorded as “B (EC1.5 1-25 μM)” and the Emax was no less than 150%.

With `Cc1nc(NC(=O)N2c3nc(N4CCCC(C(F)(F)F)C4)ccc3N3CCC[C@@H]2C3)sc1C` (stereo partly drawn) [Example 313], the “Tryp AVG EC1.5 (μM)” value was “C (EC1.5>25 μM)” and the Emax was less than 150%.

Turning to `O=C(Nc1cccc(C2(C(F)(F)F)N=N2)c1)N1c2nc(-c3cccc(C(F)(F)F)c3)ccc2N2CC[C@H]1C2` [Example 315], the “Tryp AVG EC1.5 (μM)” value was “B (EC1.5 1-25 μM)” and the Emax is no less than 150%.

With `O=C(Nc1ccccn1)N1c2nc(-c3cncc(C(F)(F)F)c3)ccc2N2CC[C@H]1C2` [Example 316], the “Tryp AVG EC1.5 (μM)” value was “A (EC1.5<1 μM)” and the Emax is no less than 150%.

In the case of `COc1cc(NC(=O)N2c3nc(-c4cncc(C(F)(F)F)c4)ccc3N3CC[C@H]2C3)ncn1` [Example 317], the “Tryp AVG EC1.5 (μM)” value was “B (EC1.5 1-25 μM)” and the Emax is no less than 150%.

On to `O=C(Nc1ccccn1)N1c2nc(-c3cccc(N4CCC(C(F)(F)F)C4)c3)ccc2N2CC[C@H]1C2` (stereo partly drawn) [Example 318], for which the “Tryp AVG EC1.5 (μM)” value is reported as “B (EC1.5 1-25 μM)” and the Emax was no less than 150%.

On to `O=C(Nc1cnccn1)N1c2nc(-c3cccc(N4CCC(C(F)(F)F)C4)c3)ccc2N2CC[C@H]1C2` (stereo partly drawn) [Example 319], for which the “Tryp AVG EC1.5 (μM)” value is given as “B (EC1.5 1-25 μM)” and the Emax was no less than 150%.

For `COc1cc(NC(=O)N2c3nc(-c4cccc(N5CCC(C(F)(F)F)C5)c4)ccc3N3CC[C@H]2C3)ncn1` (stereo partly drawn) [Example 320], the “Tryp AVG EC1.5 (μM)” value is recorded as “B (EC1.5 1-25 μM)” and the Emax was no less than 150%.

Consider `O=C(Nc1ccc(F)cn1)N1c2nc(-c3cccc(N4CCC(C(F)(F)F)C4)c3)ccc2N2CC[C@H]1C2` (stereo partly drawn) [Example 321], for which the “Tryp AVG EC1.5 (μM)” value was “B (EC1.5 1-25 μM)” and the Emax was no less than 150%.

As for `O=C(Nc1cncc(F)c1)N1c2nc(-c3cccc(N4CCC(C(F)(F)F)C4)c3)ccc2N2CC[C@H]1C2` (stereo partly drawn) [Example 323], the “Tryp AVG EC1.5 (μM)” value is recorded as “B (EC1.5 1-25 μM)” and the Emax was no less than 150%.

With `O=C(Nc1ccccn1)N1c2nc(-c3cc(Cl)cc(Cl)c3)ccc2N2CC[C@H]1C2` [Example 324], the “Tryp AVG EC1.5 (μM)” value was “A (EC1.5<1 μM)” and the Emax is no less than 150%.

Turning to `Cc1cncc(-c2ccc3c(n2)N(C(=O)Nc2ccccn2)[C@H]2CCN3C2)c1` [Example 325], the “Tryp AVG EC1.5 (μM)” value is recorded as “A (EC1.5<1 μM)” and the Emax was no less than 150%.

Consider `CS(=O)(=O)c1ccc(-c2ccc3c(n2)N(C(=O)Nc2ccccn2)[C@H]2CCN3C2)cc1` [Example 326], for which the “Tryp AVG EC1.5 (μM)” value is on record as “B (EC1.5 1-25 μM)” and the Emax is no less than 150%.

In the case of `Cc1noc(C)c1-c1ccc2c(n1)N(C(=O)Nc1ccccn1)[C@H]1CCN2C1` [Example 327], the “Tryp AVG EC1.5 (μM)” value is listed as “C (EC1.5>25 μM)” and the Emax is no less than 150%.

In the case of `CS(=O)(=O)c1cncc(-c2ccc3c(n2)N(C(=O)Nc2ccccn2)[C@H]2CCN3C2)c1` [Example 328], the “Tryp AVG EC1.5 (μM)” value was “B (EC1.5 1-25 μM)” and the Emax is no less than 150%.

Consider `O=C(Nc1ccccn1)N1c2nc(-c3ccc(F)c(Cl)c3)ccc2N2CC[C@H]1C2` [Example 329], for which the “Tryp AVG EC1.5 (μM)” value is on record as “A (EC1.5<1 μM)” and the Emax was no less than 150%.

Regarding `CC(C)c1cccc(-c2ccc3c(n2)N(C(=O)Nc2ccccn2)[C@H]2CCN3C2)c1` [Example 330], the “Tryp AVG EC1.5 (μM)” value is given as “A (EC1.5<1 μM)” and the Emax was no less than 150%.

For `Cn1ccc(-c2ccc3c(n2)N(C(=O)Nc2ccccn2)[C@H]2CCN3C2)n1` [Example 331], the “Tryp AVG EC1.5 (μM)” value is reported as “B (EC1.5 1-25 μM)” and the Emax is no less than 150%.

`O=C(Nc1ccccn1)N1c2nc(-c3ccc(Cl)c(Cl)c3)ccc2N2CC[C@H]1C2` [Example 332]: the “Tryp AVG EC1.5 (μM)” value is listed as “A (EC1.5<1 μM)” and the Emax is no less than 150%.

Turning to `O=C(Nc1ccccn1)N1c2nc(-c3cc(F)cc(C(F)(F)F)c3)ccc2N2CC[C@H]1C2` [Example 333], the “Tryp AVG EC1.5 (μM)” value was “A (EC1.5<1 μM)” and the Emax was no less than 150%.

For the molecule `O=C(Nc1ccccn1)N1c2nc(-c3cccc(C(F)(F)F)c3F)ccc2N2CC[C@H]1C2` [Example 334], the “Tryp AVG EC1.5 (μM)” value is listed as “B (EC1.5 1-25 μM)” and the Emax was no less than 150%.

Regarding `O=C(Nc1cccc(C2(C(F)(F)F)N=N2)c1)N1c2nc(-c3cccc(C(F)(F)F)c3)ccc2N2CCC[C@H]1C2` [Example 335], the “Tryp AVG EC1.5 (μM)” value is given as “A (EC1.5<1 μM)” and the Emax was no less than 150%.

On to `O=C(Nc1ccccn1)N1c2nc(-c3cccc(C(F)(F)F)n3)ccc2N2CC[C@H]1C2` [Example 336], for which the “Tryp AVG EC1.5 (μM)” value is listed as “B (EC1.5 1-25 μM)” and the Emax is no less than 150%.

For the molecule `O=C(Nc1ccncn1)N1c2nc(-c3cccc(C(F)(F)F)n3)ccc2N2CC[C@H]1C2` [Example 337], the “Tryp AVG EC1.5 (μM)” value is on record as “B (EC1.5 1-25 μM)” and the Emax was no less than 150%.

On to `O=C(Nc1cnccn1)N1c2nc(-c3cccc(C(F)(F)F)n3)ccc2N2CC[C@H]1C2` [Example 338], for which the “Tryp AVG EC1.5 (μM)” value is “B (EC1.5 1-25 μM)” and the Emax is no less than 150%.

`COc1cc(NC(=O)N2c3nc(-c4cccc(C(F)(F)F)n4)ccc3N3CC[C@H]2C3)ncn1` [Example 339]: the “Tryp AVG EC1.5 (μM)” value was “B (EC1.5 1-25 μM)” and the Emax was no less than 150%.

Take `O=C(Nc1ccc(F)cn1)N1c2nc(-c3cccc(C(F)(F)F)n3)ccc2N2CC[C@H]1C2` [Example 340]: the “Tryp AVG EC1.5 (μM)” value is reported as “B (EC1.5 1-25 μM)” and the Emax is no less than 150%.

Consider `N#Cc1cc(-c2ccc3c(n2)N(C(=O)Nc2ccccn2)[C@H]2CCN3C2)ccc1F` [Example 341], for which the “Tryp AVG EC1.5 (μM)” value is reported as “A (EC1.5<1 μM)” and the Emax is no less than 150%.

As for `COc1ccc(-c2ccc3c(n2)N(C(=O)Nc2ccccn2)[C@H]2CCN3C2)cn1` [Example 342], the “Tryp AVG EC1.5 (μM)” value was “B (EC1.5 1-25 μM)” and the Emax is no less than 150%.

As for `CN(C)Cc1cccc(-c2ccc3c(n2)N(C(=O)Nc2ccccn2)[C@H]2CCN3C2)c1` [Example 343], the “Tryp AVG EC1.5 (μM)” value was “B (EC1.5 1-25 μM)” and the Emax is no less than 150%.

`O=C(Nc1ccccn1)N1c2nc(-c3cc(F)cc(F)c3)ccc2N2CC[C@H]1C2` [Example 344]: the “Tryp AVG EC1.5 (μM)” value is on record as “A (EC1.5<1 μM)” and the Emax is no less than 150%.

With `CN(C)c1ccc(-c2ccc3c(n2)N(C(=O)Nc2ccccn2)[C@H]2CCN3C2)cn1` [Example 345], the “Tryp AVG EC1.5 (μM)” value is listed as “B (EC1.5 1-25 μM)” and the Emax was no less than 150%.

`COc1cncc(-c2ccc3c(n2)N(C(=O)Nc2ccccn2)[C@H]2CCN3C2)c1` [Example 346]: the “Tryp AVG EC1.5 (μM)” value is “B (EC1.5 1-25 μM)” and the Emax is no less than 150%.

On to `O=C(Nc1ccccn1)N1c2nc(-c3ccc(-c4nnn[nH]4)cc3)ccc2N2CC[C@H]1C2` [Example 347], for which the “Tryp AVG EC1.5 (μM)” value was “A (EC1.5<1 μM)” and the Emax is no less than 150%.

As for `N#Cc1cccc(-c2ccc3c(n2)N(C(=O)Nc2ccccn2)[C@H]2CCCN3C2)c1` [Example 348], the “Tryp AVG EC1.5 (μM)” value was “A (EC1.5<1 μM)” and the Emax is no less than 150%.

On to `Cn1cc(-c2ccc3c(n2)N(C(=O)Nc2ccccn2)[C@H]2CCN3C2)cn1` [Example 349], for which the “Tryp AVG EC1.5 (μM)” value is “B (EC1.5 1-25 μM)” and the Emax was no less than 150%.

`N#Cc1cccc(-c2ccc3c(n2)N(C(=O)Nc2cccnc2)[C@H]2CCCN3C2)c1` [Example 350]: the “Tryp AVG EC1.5 (μM)” value was “A (EC1.5<1 μM)” and the Emax is no less than 150%.

Values taken from patent US9765075B2, “Substituted bridged urea analogs as sirtuin modulators” (GLAXOSMITHKLINE LLC, priority 2013, dated 2017).
